Assay results reported in patent US9717746B2 (priority 2014, dated 2017).

How the values were obtained:
hippocampal slices [1] = test system: hippocampal slices
hippocampal slices [2] = test system: hippocampal slices; remark: listed apart in the source

Row | Compound | neurotoxicity of the neurotoxicant (PS area) (hippocampal slices [1]) | effect of antidote per se on PS (without neurotoxicant) (hippocampal slices [2])
1 | CC[C@@H]1C(=O)OC[C@@H]1Cc1cncn1C [pilocarpine] | neurotoxicity of pilocarpine increases at high potassium concentration | 
2 | CCCCCCCCCCCCCCCCCCOCC(COP(=O)([O-])OCC[N+](C)(C)C)OC (racemic) [edelfosine, 1-O-octadecyl-2-O-methyl-rac-glycero-3-phosphocholine] |  | innocuous
